Test results: the supplement of paper PMC11061612

Legend:
LN-405 (Glioblastoma) = assay: combination Emax (second highest fraction inhibited in the dose matrix, 72 h); higher = more inhibition; extreme values may be limits of the assay
Summary of the method: (§1)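 Cell lines in DMEM/F12 or RPMI with 10% FBS were plated in 1536-well plates, held 24 hours at 37°C, 5% CO2, then given two-drug dose matrices for 72 hours (DMSO typically 0.2%). Viability was read by CellTiter-Glo 2.0 luminescence and scaled as inhibition from 0 (vehicle wells) to 1 (blank wells). Combination Emax is the second-highest inhibition in the matrix; Bliss excess is observed combination effect minus expected EA + EB − EA·EB, EA and EB being single-agent effects.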

A498 (Kidney Carcinoma) = assay: as above
Summary of the method: as §1

[1] = system: NCI-H1693 (Lung Adenocarcinoma); assay: as above
Summary of the method: as §1

[2] = system: COLO-320-HSR (Colorectal Carcinoma); assay: as above
Summary of the method: as §1

[3] = system: COR-L311 (Small Cell Lung Carcinoma); assay: as above
Summary of the method: as §1

[4] = system: NCI-H2141 (Small Cell Lung Carcinoma); assay: as above
Summary of the method: as §1

[5] = system: BT-483 (Breast Carcinoma); assay: as above
Summary of the method: as §1

[6] = system: BT-483 (Breast Carcinoma); assay: Bliss excess, mean over the matrix (fraction); higher = more synergy
Summary of the method: as §1
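Wherever Bliss excess, mean over the matrix is given: after 72 h of two-drug dosing.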

SMILES | combination Emax (LN-405 (Glioblastoma)) | combination Emax (A498 (Kidney Carcinoma)) | combination Emax [1] | combination Emax [2] | combination Emax [3] | combination Emax [4] | combination Emax [5] | Bliss excess [6]
CCN(CCO)CCCOc1ccc2c(Nc3cc(CC(=O)Nc4cccc(F)c4)[nH]n3)ncnc2c1 [AZD2811] + C[C@@H]1COCCN1C2=NC(=NC(=C2)C3(CC3)[S@](=N)(=O)C)C4=C5C=CNC5=NC=C4 [AZD6738] (first compound max 1 µM, 7x7, partner max 10 µM) | 0.46 | 0.647 | 0.232 | 0.599 | 0.577 | 0.502 |  | 
CN(C)CCCOc1ccc(-c2ccc3ncc4c(c3c2)n(C2CCOCC2)c(=O)n4C)cn1 [AZD0156] + O=C(c1cc(Cc2n[nH]c(=O)c3ccccc23)ccc1F)N1CCN(C(=O)C2CC2)CC1 [Olaparib] (first compound max 3 µM, partner max 3 µM) | 0.182 | 0.316 | 0.248 | 0.301 | 0.393 | 0.192 | 0.313 | -0.0118
C=CCn1c(=O)c2cnc(Nc3ccc(N4CCN(C)CC4)cc3)nc2n1-c1cccc(C(C)(C)O)n1 [AZD1775] + C1CN(CCC1(C(=O)N[C@@H](CCO)C2=CC=C(C=C2)Cl)N)C3=NC=NC4=C3C=CN4 [Capivasertib] (first compound max 3 µM, partner max 3 µM) | 0.49 | 0.671 | 0.449 | 0.854 |  | 0.641 | 0.391 | -0.0416
COc1cc2c(cc1OCCCCCOc1cc3c(cc1OC)C(=O)N1C=C(C)C[C@H]1C=N3)N=C[C@@H]1CC(C)=CN1C2=O [SG3199] + O=C(c1cc(Cc2n[nH]c(=O)c3ccccc23)ccc1F)N1CCN(C(=O)C2CC2)CC1 [Olaparib] (first compound max 0.001 µM, 7x7, partner max 10 µM) | 0.301 | 0.173 | 0.086 | 0.061 | 0.515 | 0.197 |  | 
Cc1c2c(nn1C)CSCc1cc(n(C)n1)CSc1cc(c3ccccc3c1)OCCCc1c(C(=O)O)n(C)c3c-2c(Cl)ccc13 [AZD5991] + C1CN(CCC1(C(=O)N[C@@H](CCO)C2=CC=C(C=C2)Cl)N)C3=NC=NC4=C3C=CN4 [Capivasertib] (first compound max 1 µM, 7x7, partner max 3 µM) | 0.404 | 0.561 | 0.164 | 0.845 | 0.718 | 0.314 |  | 
CC(=O)Nc1cccc(-n2c(=O)n(C3CC3)c(=O)c3c(Nc4ccc(I)cc4F)n(C)c(=O)c(C)c32)c1 [Trametinib] + Cc1nc(-c2cn3c(n2)-c2ccc(-c4cnn(C(C)(C)C(N)=O)c4)cc2OCC3)n(C(C)C)n1 [Taselisib] (first compound max 1 µM, 7x7, partner max 10 µM) | 0.76 | 0.861 | 0.469 | 0.338 | 0.751 | 0.317 |  | 
NC1(C(=O)N[C@@H](CCO)c2ccc(Cl)cc2)CCN(c2ncnc3[nH]ccc23)CC1 [Capivasertib] + C[C@@H]1COCCN1C2=NC(=NC(=C2)C3(CC3)[S@](=N)(=O)C)C4=C5C=CNC5=NC=C4 [AZD6738] (first compound max 10 µM, 7x7, partner max 10 µM) | 0.615 | 0.694 | 0.44 | 0.507 | 0.787 | 0.557 |  | 
COc1cc2ncnc(Nc3ccc(F)c(Cl)c3)c2cc1OCCCN1CCOCC1 [Gefitinib] + CC(C)n1c(=O)n(C)c2cnc3cc(F)c(-c4ccc(OCCCN5CCCCC5)nc4)cc3c21 [AZD1390] (first compound max 10 µM, 7x7, partner max 0.3 µM) | 0.104 | 0.298 | 0.419 | 0.19 | 0.0812 | 0.0717 |  | 
Cc1cc2ncnn2cc1Nc1ncc2c(n1)n(C1CCOCC1)c(=O)n2C [AZD7648] + C=CCn1c(=O)c2cnc(Nc3ccc(N4CCN(C)CC4)cc3)nc2n1-c1cccc(C(C)(C)O)n1 [AZD1775] (first compound max 10 µM, partner max 1 µM) | 0.281 | 0.521 | 0.323 | 0.744 | 0.571 | 0.647 |  | 
COc1cccc(OCCCN)c1-c1cc(Nc2cnc(C#N)cn2)n[nH]1 [Prexasertib] + C=CCn1c(=O)c2cnc(Nc3ccc(N4CCN(C)CC4)cc3)nc2n1-c1cccc(C(C)(C)O)n1 [AZD1775] (first compound max 1 µM, partner max 1 µM) | 0.587 | 0.598 | 0.461 | 0.86 | 0.861 | 0.588 |  | 
Cc1cc2ncnn2cc1Nc1ncc2c(n1)n(C1CCOCC1)c(=O)n2C [AZD7648] + CCN(CCO)CCCOc1ccc2c(Nc3cc(CC(=O)Nc4cccc(F)c4)[nH]n3)ncnc2c1 [AZD2811] (first compound max 10 µM, 7x7, partner max 1 µM) | 0.186 | 0.439 | 0.263 | 0.209 | 0.829 | 0.358 |  | 
CC1(C)CCC(CN2CCN(c3ccc(C(=O)NS(=O)(=O)c4ccc(NCC5CCOCC5)c([N+](=O)[O-])c4)c(Oc4cnc5[nH]ccc5c4)c3)CC2)=C(c2ccc(Cl)cc2)C1 [Venetoclax] + Cc1cc2ncnn2cc1Nc1ncc2c(n1)n(C1CCOCC1)c(=O)n2C [AZD7648] (first compound max 1 µM, 7x7, partner max 10 µM) | 0.373 | 0.381 | 0.26 | 0.174 | 0.671 | 0.178 |  | 
Cc1c2c(nn1C)CSCc1cc(n(C)n1)CSc1cc(c3ccccc3c1)OCCCc1c(C(=O)O)n(C)c3c-2c(Cl)ccc13 [AZD5991] + Cc1cc2ncnn2cc1Nc1ncc2c(n1)n(C1CCOCC1)c(=O)n2C [AZD7648] (first compound max 1 µM, 7x7, partner max 10 µM) | 0.37 | 0.423 | 0.256 | 0.808 | 0.343 | 0.307 |  | 
COc1cccc(OCCCN)c1-c1cc(Nc2cnc(C#N)cn2)n[nH]1 [Prexasertib] + O=C(c1cc(Cc2n[nH]c(=O)c3ccccc23)ccc1F)N1CCN(C(=O)C2CC2)CC1 [Olaparib] (first compound max 1 µM, 7x7, partner max 10 µM) | 0.592 | 0.591 | 0.357 | 0.522 | 0.803 | 0.617 |  | 
COc1nnc2ccc(N3CCC(c4ccc(OCCN5CCN(C)C(=O)[C@H]5C)cc4)CC3)nn12 [AZD5153] + C[C@@H]1COCCN1C2=NC(=NC(=C2)C3(CC3)[S@](=N)(=O)C)C4=C5C=CNC5=NC=C4 [AZD6738] (first compound max 1 µM, 7x7, partner max 10 µM) | 0.53 | 0.65 | 0.597 | 0.719 | 0.95 | 0.578 |  | 
CC1(C)CCC(CN2CCN(c3ccc(C(=O)NS(=O)(=O)c4ccc(NCC5CCOCC5)c([N+](=O)[O-])c4)c(Oc4cnc5[nH]ccc5c4)c3)CC2)=C(c2ccc(Cl)cc2)C1 [Venetoclax] + C[C@@H](Nc1cc(F)cc(F)c1)c1cc(C(=O)N(C)C)cc2c(=O)cc(N3CCOCC3)oc12 [AZD8186] (first compound max 1 µM, 7x7, partner max 3 µM) | 0.335 | 0.632 | 0.129 | 0.135 | 0.768 | 0.361 |  | 
CN(CCO)CC[C@H](CSc1ccccc1)Nc1ccc(S(=O)(=O)NC(=O)c2ccc(N3CCC([C@@H](O)c4ccccc4-c4ccc(Cl)cc4)CC3)cc2)cc1S(=O)(=O)C(F)(F)F [AZD4320] + C[C@@H]1COCCN1C2=NC(=NC(=C2)C3(CC3)[S@](=N)(=O)C)C4=C5C=CNC5=NC=C4 [AZD6738] (first compound max 1 µM, 7x7, partner max 10 µM) | 0.63 | 0.722 | 0.546 | 0.543 | 1 | 0.943 |  | 
